PMC6410164, “Isolation and Structure-Activity Relationship of Subergorgic Acid and Synthesis of Its Derivatives as Antifouling Agent” (Marine Drugs, 2019)
Converted amounts (≈) assume the structure as drawn. Read-outs that look alike come from different tables or passages of the source.

Legend:
[1] = system: barnacle larvae; settings: cited from earlier work
[2] = system: B. amphitrite; test: Larval settlement (antifouling) assay with cyprids of the barnacle B. amphitrite; format: in vivo, Balanus amphitrite; settings: Amphibalanus amphitrite, 48 h, read-out: EC50 (μg/mL), inhibition of settlement of B. amphitrite
Procedure: The antifouling activity was examined using cyprids of the barnacle B. amphitrite Darwin according to the method reported previously. Briefly, adults of B. amphitrite, collected from the intertidal zone in Hong Kong, were exposed to air for more than 6 h, and were then placed in a container filled with 0.22 µm filtered seawater (FSW) to release nauplii. The collected nauplii were raised to cyprid stage using the method described by Thiyagarajan et al.. Fresh cyprids were used in the test. Larval settlement assays were examined using 24-well polystyrene plates. The tested samples were first dissolved with small amount of dimethyl sulfoxide (DMSO) and then diluted with FSW to achieve final concentrations at 25.0, 12.5, 6.25, 3.13, 1.57, 0.78, 0.39, 0.19, 0.1, and 0.05 µg/mL. About 15−20 competent larvae were added to each well containing 1 mL of test solution in triplicate, and wells containing only FSW, DMSO, and larvae served as a control. The plates were incubated at 25 °C for 48 h. The effects of the test samples against biofouling were determined by examining the plates under a microscope to count settled, unsettled, and swimming larvae, and where appropriate, potential toxic effects were recorded. The number of settled larvae was expressed as a percentage of the total number of larvae per well. Three replicates of each treatment were performed. A concentration-response curve was then made and a trend line was constructed for each compound. EC50 was calculated as the concentration where 50% of the larval individual was inhibited to settle as compared to the control while LC50 was calculated as the concentration where 50% of the larval population was dead. […] For the purposes of this study, adults of the barnacle B. amphitrite were scraped off from the concrete posts at a pier of Pak Sha Wan, Kowloon, Hong Kong (22°21′45″N, 114°15′35″E), where only limited quantity of B. amphitrite could be collected during the period of our experiment because of the relatively hot weather and artificial disturbing of nearby construction work.

[3] = Toxicity toward larvae in the settlement assay (LC50); settings: Balanus amphitrite (barnacle), cyprid larvae, in vivo, other: immersion of larvae in test solution, B. amphitrite larvae, highest concentration tested 25 μg/mL
Procedure: The antifouling activity was examined using cyprids of the barnacle B. amphitrite Darwin according to the method reported previously. Briefly, adults of B. amphitrite, collected from the intertidal zone in Hong Kong, were exposed to air for more than 6 h, and were then placed in a container filled with 0.22 µm filtered seawater (FSW) to release nauplii. The collected nauplii were raised to cyprid stage using the method described by Thiyagarajan et al.. Fresh cyprids were used in the test. Larval settlement assays were examined using 24-well polystyrene plates. […] About 15−20 competent larvae were added to each well containing 1 mL of test solution in triplicate, and wells containing only FSW, DMSO, and larvae served as a control. The plates were incubated at 25 °C for 48 h. The effects of the test samples against biofouling were determined by examining the plates under a microscope to count settled, unsettled, and swimming larvae, and where appropriate, potential toxic effects were recorded. The number of settled larvae was expressed as a percentage of the total number of larvae per well. Three replicates of each treatment were performed. A concentration-response curve was then made and a trend line was constructed for each compound.

[4] = system: naupliar larvae of several barnacles; parameters: method as in PMID 12031437; settings: cited from earlier work
[5] = system: B. amphitrite; parameters: method as in PMID 18075899; settings: reported by Qi et al. ref 21; cited from earlier work
[6] = system: B. amphitrite; settings: reported by Qi et al. ref 21; cited from earlier work
[7] = cyprids, 24-well plates, 25 °C, average of triplicate ± SD, highest concentration 25 μg/mL

Row | SMILES | EC50 [2, 7] | LC50 at 48 h [3] | also measured
1 | Oc1c(Br)cc(Br)cc1Cc1ccc(Br)cc1Br [2,4-dibromo-6-(2,4-dibromobenzyl)phenol] | – | – | EC50 ([1]; read-out: EC50, settlement inhibition against barnacle larvae): 1.26 µM
2 | OCc1cc(O)cc(Cl)c1O [3-chloro-2,5-dihydroxybenzylalcohol] | – | – | EC50, settlement inhibition against barnacle larvae [1]: 3.19 to 3.81 mg/L
3 | COC(=O)C1=CC2(C)CCC3C(C)CC(=O)C32C1C (stereo not drawn) [Compound 1] | 3.16 ± 0.18 µg/mL (≈ 12 µM) | > 25 mg/L | –
4 | COC(=O)C1=CC2(C)CCC3C(C)CC(O)C32C1C (stereo not drawn) [Compound 2] | 10 ± 0.13 µg/mL (≈ 37.9 µM) | > 25 mg/L | –
5 | CC1CC(O)C23C(C)C(C(=O)O)=CC2(C)CCC13 (stereo not drawn) [Compound 3] | > 25 µg/mL | > 25 mg/L | –
6 | CC1CC(=O)C23C1CCC2(C)C1OC1(C(=O)O)C3C (stereo not drawn) [Compound 4] | > 25 µg/mL | > 25 mg/L | –
7 | O=C1O[C@@H](Cc2ccccc2)C(Cc2ccccc2)=C1Cc1ccccc1 [Maculalactone A] | – | – | EC50 against naupliar larvae of several barnacles [4]: 1.1 to 5.2 mg/L
8 | CC1CC(=O)C23C(C)C(C(=O)O)=CC2(C)CCC13 (stereo not drawn) [SA, subergorgic acid] | – | > 25 mg/L | EC50 [2]: 1.25 ± 0.14 µg/mL (≈ 5.03 µM); EC50, settlement of B. amphitrite [5]: 1.2 mg/L; LC50 [6]: > 200 mg/L
